Measured values taken from patent US20150165033A1, “COMPOSITION FOR NASAL APPLICATION” (BBU-VITA CORP., priority 2012, published 2015).

How the values were obtained:
[1] = test system: duration of sleep; assay: Narcotic action of phenobarbital, duration of sleep; type: in vivo; conditions: phenobarbital control 150 mg/kg
Text: The enhancement of the narcotic effect of the barbiturate phenobarbital in “Composition 3,” administered nasally.

[2] = test system: catalepsy caused by a single intraperitoneal injection of haloperidol; assay: Spontaneous motor activity in the test "Open Field", catalepsy caused by haloperidol; type: in vivo; conditions: sum of movements in Open Field; haloperidol 0.25 mg/kg i.p. alone; male rats
Experimental: The restoration of spontaneous motor activity in rats as the sum of the movements in the test “Open Field” in the experimental model of a catalepsy caused by a single intraperitoneal (i.p.) injection of haloperidol (0.25 mg/kg, “Ratiopharm,” Germany). Dopamine (0.125 mg/kg, Polfa S.A. (Poland) was administered nasally in 50 μl in the solution of the spray once in each nostril in combination with the oxygen anion radicals (SAR) and/or the active substances of the nitrogen oxide according to the present invention (Group IV, “Composition 1”). The experiments were performed on non-purebred male rats having a body mass of 250±37 g.

SMILES | Duration of sleep [1] [min] | Spontaneous Activity [2]
CCC1(c2ccccc2)C(=O)NC(=O)NC1=O [Phenobarbital, phenobarbital] | 192 ± 29.9 | –
O=C(CCCN1CCC(O)(c2ccc(Cl)cc2)CC1)c1ccc(F)cc1 [Haloperidol, haloperidol] | – | 3.6 ± 3.4
